Experimental data: patent US5194437A, “1,4-disubstituted piperazines” (Adir et Compagnie, priority 1990, dated 1993)
Read-outs that look alike come from different tables or passages of the source.

Assays:
[1] = target: T1, 5-HT1A receptors (Rattus norvegicus, UniProt P19327); assay: In vitro binding test, 5-HT1A receptors, [3]H-8-OH-DPAT, rat hippocampus membranes; set-up: Hippocampus from the brains of decapitated rats; from tissue; host or cells: rat hippocampus membranes (male Wistar); species or system rat (male Wistar)
T1 sequence (P19327 1-422): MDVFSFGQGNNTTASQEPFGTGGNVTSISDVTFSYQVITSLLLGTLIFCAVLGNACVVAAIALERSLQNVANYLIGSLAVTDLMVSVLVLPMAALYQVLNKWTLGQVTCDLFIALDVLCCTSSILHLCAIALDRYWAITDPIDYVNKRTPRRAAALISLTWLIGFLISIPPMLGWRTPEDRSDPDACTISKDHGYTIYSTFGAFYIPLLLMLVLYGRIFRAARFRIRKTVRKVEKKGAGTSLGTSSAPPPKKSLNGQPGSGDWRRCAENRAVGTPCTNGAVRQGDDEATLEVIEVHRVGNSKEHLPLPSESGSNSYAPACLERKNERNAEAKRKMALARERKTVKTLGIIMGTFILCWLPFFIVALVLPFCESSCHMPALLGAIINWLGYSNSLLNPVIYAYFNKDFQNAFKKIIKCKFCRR
Procedure: Hippocampus from the brains of decapitated rats was immediately frozen on dry ice and then stored at -80° C. until preparation of membranes. The tissue was homogenised at 4° C. in the appropriate buffer using a Polytron (Brinkman Instruments - Lucerne - Switzerland) and centrifuged at 20,000 rpm.
Incubation was carried out at 25° C. for 30 minutes. Non-specific binding was defined by 10 μM of 5-HT. The tests were terminated by rapid filtration by means of a Brandel harvester over glass-fibre filters pretreated with 0.1% polyethyleneimine.
The inhibitory concentration 50 values (IC50) were determined according to method 8 of Tallarida R. J. and Murray R. B., Manual of pharmacological calculations with computer programs, Springer Verlag, N.Y. (1987).
The pKi was calculated according to the formula [formula] where [L] is the concentration of the hot ligand ([3]H-8-OH-DPAT, 0.4 nM) and Kd is the apparent dissociation constant determined from saturation experiments.
The test substances were dissolved in the incubation buffer.

[2] = target: T1, 5-HT1A receptors; assay: Spontaneous tail flick test (STF), agonist and antagonist activity; type: in vivo, male Wistar rats; set-up: from tissue; host or cells: whole animal, male Wistar rat (in vivo); settings: for Spontaneous tail flicks M.E.D.: agonist: induction of STF, s.c., minimum effective dose; for ED50: rat, sc, 1 h, antagonist: inhibition of STF induced by 8-OH-DPAT 0.63 mg/kg s.c., compound s.c. 60 min before test, read-out: Spontaneous tail flicks ID50 (95% C.L.)
Procedure: (§1) The tests were carried out on male Wistar rats weighing from 200 to 220 g which had free access to food and drinking water, in standard cages.
(§2) The animals are housed individually for the hypothermia, corticosterone secretion and flat body posture tests, and in groups of three for the tail flick test.
(§3) The laboratory temperature is kept at 21°±1° C., with 60 ±5% humidity. The rats are subjected to a light/dark cycle of 12 hours/12 hours (the light cycle commencing at 7.30 a.m.).
(§4) a/ General procedure for tests of agonist and antagonist activities on 5-HT1A receptors.
(§5) The test compounds were administered subcutaneously (s.c.) 60 minutes before the start of the test, that is to say 30 minutes before the vehicle (agonist responses) or 8-OH-DPAT (antagonist responses).
(§6) In all the tests, the solvent is used in parallel as the control. The animals were allowed to rest in their cages during the time between the injections and evaluation.
(§7) For the agonist studies, the solvent was administered at a dose of 1 ml/kg s.c. 30 minutes before the start of the test. For the antagonist studies, doses of 8-OH-DPAT inducing sub-maximal responses were chosen, i.e. doses of 0.63, 0.16, 0.16 and 0.16 mg/kg s.c. for the tail flick test, the flat body posture test, the corticosterone secretion test and the hypothermia test, respectively.
Tail flicks were determined in animals restrained in horizontal, opaque plastics cylinders, the animals' tails hanging freely over the edge of the laboratory bench. After a 5-minute adaptation period, the number of movements made in 5 minutes is recorded. One STF is defined as the raising of the tail to a level higher than the level of the body axis [Millan M. J. et al., J. Pharmacol. Exp. Ther., 256, 973-982 (1990)].
(§8) In general, after variance analysis, the results are subjected to Dunnett's test. Results are regarded as significant if p<0.05.
(§9) The doses of the test compounds are all expressed in terms of the base. Unless otherwise mentioned, all the compounds were dissolved in sterile water (to which a few drops of lactic acid are added, if necessary) and administered at a volume of 1 ml/kg s.c..

[3] = target: T1, 5-HT1A receptors; assay: Flat body posture (FBP), agonist response and antagonism of 8-OH-DPAT; type: in vivo, male Wistar rats; set-up: from tissue; host or cells: whole animal, male Wistar rat (in vivo); settings: sc
Procedure: as §1, §2, §3, §4, §5, §6, §7
(§10) The same animals were employed for the evaluation of the effect of the test compounds on the FBP and for the determination of the plasma levels of CS. All the tests were carried out in the morning between 10.30 and 12.30, i.e. when the cicardian levels of CS are at their lowest.
25 minutes after the treatment (i.e. 5 minutes before decapitation), the animals are observed in their cages and the presence or absence of FBP is noted.
(§11) The presence of FBP is defined by a characteristic posture of the animal. The animal is then in a position of ventral decubitus with the hind limbs clearly in extension. 5 minutes after observation of FBP, the animals are decapitated and the trunk blood is collected in chilled tubes containing 50 μl of a 10% EDTA solution. After centrifugation at 4000 rpm, the plasma is removed and stored at -30° C. until assay.
as §8
For the dose-response for induction and inhibition of FBP, the effective doses 50 (ED50) (doses at which 50% of the animals show a response) were calculated by the method of Litchfield and Wilcoxon.
as §9

[4] = target: T1, 5-HT1A receptors; assay: Body temperature (hypothermia), agonist and antagonist activity; type: in vivo, male Wistar rats; set-up: from tissue; host or cells: whole animal, male Wistar rat (in vivo); settings: for Hypothermia M.E.D.: agonist: induction of hypothermia, s.c., minimum effective dose; for ED50: rat, sc, 1 h, antagonist: inhibition of hypothermia induced by 8-OH-DPAT 0.16 mg/kg s.c., compound s.c. 60 min before test, read-out: Hypothermia ID50 (95% C.L.)
Procedure: as §1, §2, §3, §4, §5, §6, §7
The rats are immobilised and a lubricated digital thermometer (Thermistoprobe from Testotherm, Basle, Switzerland) is inserted into the rectum to a depth of 5 cm. 30 seconds after insertion, the temperature is read off a digital scale. The percentage inhibition is calculated with the aid of the formula mentioned above.
as §8, §9

[5] = target: T1, 5-HT1A receptors; assay: Corticosterone secretion (CS), plasma, agonist and antagonist activity; type: in vivo, male Wistar rats; set-up: from tissue; host or cells: whole animal, male Wistar rat (in vivo); settings: for Corticosterone secretion M.E.D.: agonist: induction of CS, s.c., minimum effective dose; for ED50: rat, sc, 1 h, antagonist: inhibition of CS induced by 8-OH-DPAT 0.16 mg/kg s.c., compound s.c. 60 min before test, read-out: Corticosterone secretion ID50 (95% C.L.)
Procedure: as §1, §2, §3, §4, §5, §6, §7, §10, §11
CS was determined using a radio-competitive assay for a CS-binding protein in plasma: transcortin. The latter is obtained from monkey serum. Separation of the CS-transcortin complexes from free CS was effected by means of a solution of dextran and active charcoal. The detection limit was 50 pg/tube. Intra- and inter-assay variations were 5 and 15%, respectively [cf. Rivet J. M. et al., Eur. J. Pharmacol., 183, 634-635 (1990)].
Since the base levels of CS in plasma are never zero, the following formula was used to calculate the percentage inhibition of plasmatic CS induced by 8-OH-DPAT: [formula]
as §8, §9

[6] = hot ligand [3]H-8-OH-DPAT 0.4 nM, rat hippocampus membranes, 25° C., 30 minutes, read-out: Affinity (pKi) (converted)
[7] = 1 h, read-out: Flat body posture ED50 (95% C.L.), antagonism of 8-OH-DPAT, inhibition of FBP, 8-OH-DPAT 0.16 mg/kg s.c., compound s.c. 60 min before test
[8] = induction of FBP, s.c., dose at which 50% of the animals show a response, read-out: Flat body posture ED50 (95% C.L.), agonist response

Row | Compound | Ki [1] | Ki [1, 6] | Spontaneous tail flicks M.E.D. [2] | ED50 [2] | ED50 [3, 7] | ED50 [3, 8] | Hypothermia M.E.D. [4] | ED50 [4] | Corticosterone secretion M.E.D. [5] | ED50 [5] | Affinity (pKi) ([1]; hot ligand [3]H-8-OH-DPAT 0.4 nM, rat hippocampus membranes, 25° C., 30 minutes)
1 | c1ccc2c(c1)CC2CCCCN1CCN(c2cccc3c2OCCO3)CC1 (racemic) [Example 8, (R,S)-4-(benzodioxan-5-yl)-1-[4-(benzocyclobutan-1-yl)-butyl]-piperazine] | 1.58 nM | – | – | – | – | – | – | – | – | – | –
2 | COc1cc2c(cc1OC)C(CCN1CCN(c3cccc4c3OCCO4)CC1)CC2 (racemic) [Example 19, (R,S)-4-(benzodioxan-5-yl)-1-[2-(5,6-dimethoxyindan-1-yl)-ethyl]-piperazine] | – | 1.48 nM | – | – | – | – | – | – | – | – | –
3 | c1ccc2c(c1)CCC2CCN1CCN(c2cccc3c2OCCO3)CC1 (racemic) [Example 22, (R,S)-4-(benzodioxan-5-yl)-1-[2-(indan-1-yl)-ethyl]-piperazine] | – | – | > 10.0 mg/kg | 0.74 mg/kg | 1.03 mg/kg | > 10 mg/kg | > 40.0 mg/kg | 1.19 mg/kg | > 10.0 mg/kg | 1.92 mg/kg | –
4 | c1ccc2c(c1)CC2CN1CCN(c2cccc3c2OCCO3)CC1 (racemic) [Example 1, (R,S)-4-(benzodioxan-5-yl)-1-[(benzocyclobutan-1-yl)methyl]-piperazine] | 1.82 nM | – | > 10.0 mg/kg | 0.09 mg/kg | 0.71 mg/kg | > 10 mg/kg | 10.0 mg/kg | 0.5 mg/kg | > 2.5 mg/kg | < 2.5 mg/kg | –
5 | C1=C(CCN2CCN(c3cccc4c3OCCO4)CC2)c2ccccc2C1 [Example 18, 4-(benzodioxan-5-yl)-1-[2-(ind-1-en-1-yl)-ethyl]-piperazine] | 0.813 nM | – | – | – | – | – | – | – | – | – | –
6 | c1ccc2c(c1)CC(CN1CCN(c3cccc4c3OCCO4)CC1)C2 [Example 14, 4-(benzodioxan-5-yl)-1-[(indan-2-yl)-methyl]-piperazine] | 3.39 nM | – | – | 0.19 mg/kg | ≥ 2.5 mg/kg | > 2.5 mg/kg | > 10.0 mg/kg | < 2.5 mg/kg | > 2.5 mg/kg | > 2.5 mg/kg | –
7 | COc1cc2c(cc1OC)C(CCN1CCN(c3cccc4c3OCCO4)CC1)C2 (racemic) [Example 17, (R,S)-4-(benzodioxan-5-yl)-1-[2-(4,5-dimethoxybenzocyclobutan-1-yl)-ethyl]-piperazine] | – | 3.47 nM | – | – | – | – | – | – | – | – | –
8 | c1ccc2c(c1)CC(N1CCN(c3cccc4c3OCCCO4)CC1)C2 [Example 9, 4-[benzo(1,5)dioxepin-6-yl]-1-(indan-2-yl)-piperazine] | – | – | > 10.0 mg/kg | 1.59 mg/kg | < 2.5 mg/kg | > 2.5 mg/kg | 5.0 mg/kg | 4.36 mg/kg | > 2.5 mg/kg | > 2.5 mg/kg | 8.42
9 | c1ccc2c(c1)CC2CCN1CCN(c2cccc3c2OCCCO3)CC1 (racemic) [Example 3, (R,S)-4-[benzo(1,5)dioxepin-6-yl]-1-[2-(benzocyclobutan-1-yl)-ethyl]-piperazine] | – | – | > 10.0 mg/kg | 0.32 mg/kg | 1.55 mg/kg | > 10 mg/kg | > 20.0 mg/kg | 1.64 mg/kg | > 10.0 mg/kg | 2.15 mg/kg | –
10 | c1ccc2c(c1)CC2CCCN1CCN(c2cccc3c2OCCO3)CC1 (racemic) [Example 13, (R,S)-4-(benzodioxan-5-yl)-1-[3-(benzocyclobutan-1-yl)-propyl]-piperazine] | – | – | > 10.0 mg/kg | 0.13 mg/kg | 0.57 mg/kg | > 10 mg/kg | 10.0 mg/kg | 0.21 mg/kg | 10.0 mg/kg | 1.27 mg/kg | –
11 | COc1ccc2c(c1)C(CCN1CCN(c3cccc4c3OCCO4)CC1)C2 (racemic) [Example 16, (R,S)-4-(benzodioxan-5-yl)-1-[2-(5-methoxybenzocyclobutan-1-yl)-ethyl]-piperazine] | – | 1.41 nM | – | – | – | – | – | – | – | – | –
12 | c1ccc2c(c1)CCC2CCCN1CCN(c2cccc3c2OCCO3)CC1 (racemic) [Example 23, (R,S)-4-(benzodioxan-5-yl)-1-[3-(indan-1-yl)-propyl]piperazine] | – | – | – | 0.56 mg/kg | 0.29 mg/kg | 10 mg/kg | 5.0 mg/kg | 0.4 mg/kg | > 2.5 mg/kg | < 2.5 mg/kg | –
